From patent publication US11779597B2, “Method of treating Parkinson's and other neurodegenerative diseases” (Vector Vitale IP LLC, priority 2019, dated 2023)

Key:
[1] = tested on: rat peripheral blood monocytes; assay: Metabolic profile of nonsensitized rat peripheral blood monocytes in vitro; assay type: cell-based
Experimental: (§1) Materials and methods: Rat microglial cells were isolated by mechanical (cell sieves) disintegration of the brain tissue (FIG. 30A, FIG. 30B and FIG. 30C) followed by fractionation of the tissue homogenate in Percoll density gradient (Microglia: Methods and Protocols, Edited by Bertrand Josef and Jose Luis Venero, Springer protocol. Humana Press, 2013, 350 p.) (FIG. 31). Before the collection of the brain tissue, decapitation was performed to avoid hemorrhage to the brain during sampling (FIG. 32). Decapitation was performed immediately after anesthesia to minimize the death of brain tissue, including microglial cells. All manipulations for the isolation of microglial cells were carried out using coolants. Circulating neutrophils were isolated from venous blood taken into a tube containing EDTA in a two-step Percoll gradient (Alsharif K F et al. Vascul Pharmacol. 2015 August; 71:201-7. doi: 10.1016/j.vph.2015.02.006)(FIG. 33A and FIG. 33B). Circulating monocytes were isolated from venous blood collected into a tube containing heparin in a two-step Hypaque gradient (Macrophages and dendritic cells: Methods and Protocols, Edited by Neil E. Reiner, NY, Humana Press, 2009: 368 P). The metabolic profile of phagocytes was characterized based on the pathway of arginine metabolism (levels of arginase activity and NO synthesis measured using photocolorimetric methods), the level of formation of intracellular reactive oxygen species (ROS) by esterases and the indices of phagocytic activity determined by flow cytofluorimetry, as well as according to the activation levels of NADH and NADPH oxidases determined in NBT test. Duration of treatment of phagocytes of all the above mentioned populations varied depending on the methodological characteristics of metabolic response. A 90 minute exposure to the drugs according to Kim et al., 1977 (cited above) was used to analyze their effects on oxidative metabolism and phagocytic activity. An 18 hour exposure according to Lastra et al., 2001 (cited above) was used to analyze the drug effects on arginine metabolic pathway. To analyze the effects of the drugs under study on the induced (stimulated) metabolic activity of phagocytes, the cells were treated with lipopolysaccharide (LPS) from E. coli (Sigma, USA) according to Haddad et al., 2009 (cited above).

rat microglial cells = assay: Metabolic profile of nonsensitized rat microglial cells in vitro; assay type: cell-based
Experimental: as §1

[2] = tested on: LPS rat models of Parkinson's disease; assay: Elevated plus maze; assay type: in vivo
Text: Method. The elevated plus maze is a widely used behavioral assay for rodents that makes it possible to assess sedative or anxiogenic effects of agents and to define mechanisms underlying anxiety-related behavior, as well as to evaluate the motor activity of rats and levels of their exploratory activity that may correlate with the data collected in the open field test. Campos A C, et al., Braz J Psychiatry. 2013; 35 Suppl 2:S101-11. doi: 10.1590/1516-4446-2013-1139; Braun A A, et al., Neurobiol Learn Mem. 2012; 97(4):402-8. doi: 10.1016/j.nlm.2012.03.004). Behavior was assessed according to the following main parameters: the total distance travelled, the number of entries into each arm, the time spent in each arm, the total number of entries and percent of entries. […] Throughout the experiment, animals had free access to food and water. Before starting measurements, animals were given time to adapt to new an environment to reduce stress.
The entire apparatus was elevated 50 cm above the floor. The central part of the junction was a 10 cm square center region where an animal was started facing an open arm. The apparatus was illuminated by two LED bulbs, 60 watts each, hanging at a height of 2 m. An IP camera was used to record the location of rats and scoring was completed later using the MATLAB-based software. The statistical analysis was performed using GraphPad Prism. Significance was set at <0.005. The data collected from the open field were analyzed using One-way ANOVA (Tukey test or Dunnett test) and Unpaired t-test or Mann-Whitney.
Data analysis and interpretation. The test is based on the natural aversion of rats for open areas and their preference for closed areas of the apparatus. The levels of anxiety in animals are assessed as the total time spent in the open and closed arms. Animals that spend more time in the open arms have lower levels of anxiety compared to animals that prefer closed arms. In addition, like in an open field test, a novel environment in which an animal finds itself evokes conflict between fear and a desire to explore this environment. Therefore, the data collected from these two tests may correlate in the distance travelled and the time spent in the outer and inner perimeter. It is considered normal if during a 5-minute test, animals spend most of their time in the closed arms but also make a few entries to the open arms to explore. Accordingly, an increase in open arm entries is interpreted as a decreased anxiety in the animal. FIG. 51A and FIG. 51B show an example of analysis of a rat trajectory in the experimental arena.
On the 1st day of the experiment, rats were either operated to model hemi-parkinsonism or sham operated. From the 9th to the 18th day of the experiment, the animals were injected either deuterium-depleted water or the test substance, according to their allocation into groups, for 10 days. On the 8th day of the experiment (before initiation of treatment—apomorphine test I) and on the 21st day of the experiment (after the end of administering the test substance —apomorphine test II) the animals underwent an apomorphine test to analyze the development of hemi-parkinsonism which correlates with the number of destroyed dopaminergic neurons. In addition, a follow-up analysis of fecal water content was carried out, i.e., before the start of treatment on the 8th day after the operation, as well as on the 21st (after the end of treatment) and the 28th day (before autopsy). On the 24th day of the experiment, behavioral tests were carried out in all groups. All animals were weighed before autopsy.

[3] = tested on: LPS rat models of Parkinson's disease; assay: Pick-up test; assay type: in vivo; conditions: group V (LPS+^64Zn-asp) versus group IV (LPS)
Text: The pick-up test is a test for increased irritability. The animal is picked up by grasping around the body. Responses were scored as 1, very easy; 2, easy with vocalizations; 3, some difficulty, the rat rears and faces the hand; 4, the rat freezes (with or without vocalization); 5, difficult, the rat avoids the hand by moving away; and 6, very difficult, the rat behaves defensively, and may attack the hand.
On the 1st day of the experiment, rats were either operated to model hemi-parkinsonism or sham operated. From the 9th to the 18th day of the experiment, the animals were injected either deuterium-depleted water or the test substance, according to their allocation into groups, for 10 days. […] On the 24th day of the experiment, behavioral tests were carried out in all groups.

[4] = regardless of the concentration, in vitro

Q: What does the source list for “^64Zn-enriched zinc aspartate [^64Zne-asp]”?
A: LPS-stimulated oxidase-dependent respiratory burst of monocytes [1]: no effect; production of nitric oxide by monocytes treated with LPS [1]: moderately increased; spontaneous esterase-dependent intracellular ROS production by monocytes [1]: decrease; intracellular ROS production by bacterial LPS-treated monocytes ([1]; 10 μg/ml): statistically significantly reduced; spontaneous oxidative metabolism dependent on NADH and NADPH oxidases (NBT test) in monocytes ([1]; 10 μg/ml): slightly increased; phagocytic activity of monocytes ([1]; concentrations ≤5 μg/ml): reduced; spontaneous production of nitrites by nonsensitized circulating monocytes ([1]; regardless of the concentration): did not change significantly; arginase activity of monocytes ([1]; resting cells and bacterial LPS-treated cells): absent; arginase activity of microglial cells on the background of LPS treatment (rat microglial cells; 2.5 μg/ml): moderately strengthened; LPS-stimulated activity of NO synthase (synthesis of nitrites) in microglial cells (rat microglial cells; 10 μg/ml): decreased; ROS production stimulated by LPS in microglial cells (rat microglial cells; 20 and 5 μg/ml): significantly inhibited; spontaneous esterase-dependent oxidative metabolism (intracellular ROS) in microglial cells (rat microglial cells; 20 and 10 μg/ml): stimulated; number of phagocytic cells in the microglial population (rat microglial cells; all concentrations studied): without affecting; phagocytic activity of microglial cells (rat microglial cells; all concentrations studied): moderately increased; spontaneous esterase-dependent oxidative metabolism (intracellular ROS) in microglial cells (rat microglial cells; concentrations ≤5 μg/ml): no statistically significant effect; ROS production stimulated by LPS in microglial cells (rat microglial cells; other concentrations): did not have any effect; spontaneous arginase activity of nonsensitized microglial cells (rat microglial cells; [4]): virtually no effect; spontaneous nitric oxide production by nonsensitized microglial cells (rat microglial cells; [4]): reduced; Number of entries into closed arms ([2]; LPS + ^64Zn-asp, Gr. V): 6.1 ± 8.279; Number of entries into open arms ([2]; LPS + ^64Zn-asp, Gr. V): 6.1 ± 8.279; Time spent in closed arms ([2]; LPS + ^64Zn-asp, Gr. V): 243.3 ± 54.2 s; Time spent in open arms ([2]; LPS + ^64Zn-asp, Gr. V): 17.55 ± 24.48 s; Total distance travelled, cm ([2]; LPS + ^64Zn-asp, Gr. V): 396.8 ± 107.7 cm; Total number of entries ([2]; LPS + ^64Zn-asp, Gr. V): 13 ± 16.66; behavioral parameters in the elevated plus maze (in words) ([2]; group V (LPS+^64Zn-asp) versus group IV (LPS)): had not produced any effects; increase of number of entries ([2]; group V versus group IV (LPS)): 1.3 times; increase of total distance travelled ([2]; group V versus group IV (LPS)): 1.2 times; irritation in the pick-up test [3]: statistically significant elevation
